Patent US10624887B2, “Compositions of (-)-17-(cyclobutylmethyl)morphinan-3,14,-diol” (priority 2010, dated 2020)

Test system: nociception in rats
Test: Radiant heat tail flick test
Format: in vivo, Wistar rats
Conditions: butorphanol 1 mg/kg
From the text: The tail flick test was first described by D'Amour and Smith (1941), and remains essentially unchanged in application. (See generally D'Amour, F. E. and Smith, D. L., “A method for determining loss of pain sensation”, J. Pharmacol. Exp. Therap., 72:74-79(1941); Dewey, D. L. and Harris, L. S., The Tail-flick test. In: S. Ehrenpreis and A. Neidle (Eds.), Methods in Narcotic Research, Marcel Dekker, Inc., New York, 1975, pp. 101-109; and Dubner, R. and Ren, K., “Assessing transient and persistent pain in animals” In: P. D. Wall and R. Melzack (Eds.), Textbook of Pain, Churchill Livingstone, London, 1999, pp. 359-369). Quite simply, the tail of a rat or mouse is exposed to radiant heat, and the latency to withdraw is determined. The basal heat intensity is set so that naive rats withdraw their tails within 2 to 3 sec. A cut-off latency of 10 sec (i.e., 3 to 4 times basal control value) is commonly employed to prevent tissue damage. […]
Three groups were employed in the present study with each group comprising of 8 animals. […] Area under the curve was calculated using a graph between % MPE and time. Area under the curve was employed as a quantitative measure of the analgesic effect of the treatments.
Nociceptive threshold was measured with the tail flick test (D'Amour and Smith, 1941). […] Tail flick latency is expressed as a percentage of the maximum possible effect (MPE): […]

With `Oc1ccc2c(c1)[C@@]13CCCC[C@@]1(O)[C@@H](C2)N(CC1CCC1)CC3` [butorphanol, (−)17-(Cyclobutylmethyl)morphinan-3,14-diol] the tail flick latency (intra-gastric, intra-ileal and intra-colonic administration, each, rats) was “significant increase” and the “antinociceptive effect (area under the curve of % MPE vs time), intra-colonic versus intra-gastric or intra-ileal” value (tail flick, FIG. 13) was “significantly greater antinociceptive effect”.
